From US10017453B2, “Pharmaceutically acceptable salts of fatty acids” (Dignity Sciences Limited, priority 2013, dated 2018)
In brackets after ≈: the same amount, converted by molar mass.

Assays:
[1] = 8 Day Stability 40/75% RH of solids from the salt/cocrystal screen; assay type: physicochemical; details: 8 days
[2] = Chemical stability at ambient temperature under vacuum for 8 days; assay type: physicochemical
From the text: Twenty four co-formers and acids were used to screen for stable forms of 15-HETrE but most yielded oils or gels. Salts with improved handling properties were isolated from the screen: sodium, ornithine, lysine, meglumine and piperazine, but all were poorly crystalline.
Properties of 15-HETrE salts prepared according to Examples 4-7 were compared against each other and against 15-HETrE free acid API.

[3] = Dynamic vapor sorption (DVS) analysis; assay type: physicochemical; details: for Hygroscopicity according to the European Pharmacopeia classification: DVS
From the text: Post DVS XRPD analysis was not conducted as the material deliquesced.

[4] = Storage stability up to 24 weeks, free acid versus lysine salt (FIG. 28); assay type: physicochemical
Protocol: The 15-HETrE-lysine salt is stable at 20° C. and 40% humidity as well as at 40° C. and 75% humidity, making the lysine salt useful for pharmaceutical applications. 15-HETrE lysine salt was prepared on a larger scale for the crystallization screen as a white powder.

[5] = Qualitative solubility observations of the salts; assay type: physicochemical
Protocol: An alternative method to prepare 15-HETrE sodium salt by slurrying and avoid need for rotary evaporation could not be found. […] Scale up and characterization was completed for 15-HETrE sodium salt using rotary evaporation from 10% aqueous EtOH, then EtOH. […] Purity as measured by UPLC analysis was ˜81%.
Products of each of the Reactions were white in appearance. Filtration was carried out with a sintered funnel (no. 3, 10 mm diameter) under mild vacuum. Some filter cake products were yellow in appearance. The first ˜200 μL of filtrate were transferred into an HPLC vial. Filtration of the remaining reaction mixture (alternating between high and medium vacuum) yielded a filter cake that was transferred to a vacuum chamber and dried overnight before being stored in a freezer.

[6] = Solvent-induced degradation of 15-(S)-HETrE lysine salt (ethyl acetate or methanol, overnight, UPLC); assay type: physicochemical
Protocol: An experiment to determine the degradation of 15-(S)-HETrE lysine salt, if any, when contacted with ethyl acetate or methanol. 15-(S)-HETrE lysine salt (100 mg) was dissolved in solvent (1 mL) and stirred overnight.

[7] = Reslurry of 15-(S)-HETrE lysine salt in ethyl acetate (impurity profile, NMR ratio); assay type: physicochemical
Protocol: An experiment was conducted to determine if the ratio of 15-(S)-HETrE to lysine would change after exposure to ethyl acetate. 15-(S)-HETrE lysine salt (100 mg) was suspended in HPLC grade ethyl acetate (1 mL) and stirred vigorously overnight at room temperature. The suspension was then filtered as described in previous examples. The impurity profiles of the starting 15-(S)-HETrE lysine salt (“before slurry”) and the slurried, filtered salt (“after reslurry”) are shown in Table 25.
NMR spectroscopy confirmed no change in the ratio of 15-(S)-HETrE-to-lysine ratio.

[8] = ambient temperature; probably due to uptake of moisture
[9] = Solubility screen of as-received 15-HETrE (aliquot addition method); assay type: physicochemical; details: for solubility: organic solvent or mixture, estimated, read-out: Solubility Range
From the text: This is believed to be due to degradation of 15-HETrE, therefore HFIPA was not used in any further studies of 15-HETrE.

[10] = Degradation of 15-(S)-HETrE on exposure to isopropyl acetate (overnight, UPLC); assay type: physicochemical
Protocol: An experiment was conducted to examine whether any degradation would be observed upon exposure of 15-(S)-HETrE to isopropyl acetate. 15-(S)-HETrE (100 mg) was dissolved in isopropyl acetate (1 mL) and stirred overnight. This was sampled directly for UPLC analysis (Table 39).

[11] = in ethyl acetate, stirred overnight
[12] = original salt, before solvent contact
[13] = after reslurry in ethyl acetate, overnight, room temperature
[14] = before exposure to isopropyl acetate
[15] = in isopropyl acetate, stirred overnight

## CCCCCC(O)/C=C/C=C\C/C=C\CCCCCCC(=O)O.NCCCC[C@H](N)C(=O)O (stereo not shown) [15-HETrE lysine salt, 15-Hydroxy-eicosa-8(Z),11(Z),13(E)-trienoic acid lysine salt]
[1]
  8 Day Stability 40/75% RH: 97% purity
[2]
  Chemical stability: chemically stable
[3]
  Hygroscopicity according to the European Pharmacopeia classification: hygroscopic
[3]; above 80% RH
  DVS behaviour: deliquesced
[3]; below 70% RH
  DVS weight gain: less than 1%
[3]; between 70-80% RH
  DVS additional weight gain: 1%
[4]; 20° C. and 40% humidity
  Storage stability: stable
[4]; 40° C. and 75% humidity
  Storage stability: stable
[5]; DMSO
  solubility: insoluble
[5]; chloroform
  solubility: insoluble
[5]; water
  solubility: dissolves readily
[6]; [11]
  HETrE (RRT 1) peak area: 94.20%
  IMP 1 (RRT 0.62) peak area: 0.05%
  IMP 2 (RRT 0.64) peak area: 0.86%
  IMP 3 (RRT 0.69) peak area: 0.96%
  IMP 4 (RRT 0.91) peak area: 1.30%
  IMP 5 (RRT 1.03) peak area: 0.29%
  IMP 6 (RRT 1.1) peak area: 1.35%
  IMP 7 (RRT 1.75) peak area: 0.14%
[6]; in methanol, stirred overnight
  HETrE (RRT 1) peak area: 95.40%
  IMP 1 (RRT 0.62) peak area: 0.03%
  IMP 2 (RRT 0.64) peak area: 0.24%
  IMP 3 (RRT 0.69) peak area: 0.45%
  IMP 4 (RRT 0.91) peak area: 1.16%
  IMP 5 (RRT 1.03) peak area: 0.13%
  IMP 6 (RRT 1.1) peak area: 1.34%
  IMP 7 (RRT 1.75) peak area: 0.31%
[6]; [12]
  HETrE (RRT 1) peak area: 95.67%
  IMP 1 (RRT 0.62) peak area: 0.20%
  IMP 2 (RRT 0.64) peak area: 0.12%
  IMP 3 (RRT 0.69) peak area: 0.27%
  IMP 4 (RRT 0.91) peak area: 1.30%
  IMP 5 (RRT 1.03) peak area: 0%
  IMP 6 (RRT 1.1) peak area: 1.44%
  IMP 7 (RRT 1.75) peak area: 0.55%
[7]; [13]
  HETrE (RRT 1) in impurity profile: 95.69
  IMP 1 (RRT 0.62) in impurity profile: 0.16
  IMP 2 (RRT 0.64) in impurity profile: 0.39
  IMP 3 (RRT 0.69) in impurity profile: 0.16
  IMP 4 (RRT 0.91) in impurity profile: 1.08
  IMP 5 (RRT 1.03) in impurity profile: 0.07
  IMP 6 (RRT 1.1) in impurity profile: 1.47
  IMP 7 (RRT 1.75) in impurity profile: 0.11
[7]; before reslurry
  HETrE (RRT 1) in impurity profile: 96.66
  IMP 1 (RRT 0.62) in impurity profile: 0.04
  IMP 2 (RRT 0.64) in impurity profile: 0.09
  IMP 3 (RRT 0.69) in impurity profile: 0.11
  IMP 4 (RRT 0.91) in impurity profile: 1.01
  IMP 5 (RRT 1.03) in impurity profile: 0.15
  IMP 6 (RRT 1.1) in impurity profile: 1.39
  IMP 7 (RRT 1.75) in impurity profile: 0.26
[7]; ethyl acetate, overnight, room temperature, NMR
  Change in 15-(S)-HETrE-to-lysine ratio after reslurry: no change

## C1CNCCN1.CCCCCC(O)/C=C/C=C\C/C=C\CCCCCCC(=O)O (stereo not shown) [15-HETrE piperazine salt, 15-Hydroxy-eicosa-8(Z),11(Z),13(E)-trienoic acid piperazine salt]
[8]
  Behaviour on exposure to air: appears to flow on exposure to air at ambient temperature

## CCCCCC(O)/C=C/C=C\C/C=C\CCCCCCC(=O)[O-].[Na+] (stereo not shown) [15-HETrE sodium salt, 15-Hydroxy-eicosa-8(Z),11(Z),13(E)-trienoic acid sodium salt]
[1]
  8 Day Stability 40/75% RH: 95% purity
[3]
  Hygroscopicity according to the European Pharmacopeia classification: very hygroscopic
[3]; below 40% RH
  DVS weight gain: less than 1%
[3]; high RH
  DVS behaviour: deliquesced
[5]; water used in the slurry preparation, salt did not precipitate
  solubility: highly soluble

## CCCCCC(O)/C=C/C=C\C/C=C\CCCCCCC(=O)O (stereo not shown) [15-HETrE, 15-Hydroxy-eicosa-8(Z),11(Z),13(E)-trienoic acid]
[9]; 1,1,1,3,3,3-hexafluoroisopropyl acrylate (HFIPA), believed to be degradation
  Stability when combined with HFIPA: rapid color change from clear, colorless to blood red to deep purple/black
[9]; Acetone
  solubility: 3120 to 9360 µg/mL (≈ 9.67 to 29 mM)
[9]; Acetonitrile (ACN)
  solubility: 930 to 2780 µg/mL (≈ 2.88 to 8.62 mM)
[9]; DCM
  solubility: 1170 to 3520 µg/mL (≈ 3.63 to 10.9 mM)
[9]; DMF
  solubility: 1230 to 3680 µg/mL (≈ 3.81 to 11.4 mM)
[9]; Dioxane
  solubility: 1660 to 4980 µg/mL (≈ 5.15 to 15.4 mM)
[9]; Ethanol (EtOH)
  solubility: 1260 to 3780 µg/mL (≈ 3.91 to 11.7 mM)
[9]; Ethyl acetate (EtOAc)
  solubility: 1890 to 5660 µg/mL (≈ 5.86 to 17.6 mM)
[9]; Methanol (MeOH)
  solubility: 2120 to 6360 µg/mL (≈ 6.57 to 19.7 mM)
[9]; THF
  solubility: 3320 to 9960 µg/mL (≈ 10.3 to 30.9 mM)
[9]; ten solvents tested
  Miscibility in solvents: miscible in all solvents tested
[4]; stored up to 24 weeks at −20° C., 2-8° C., 25° C.
  Storage stability: unstable and degrades at all conditions with the exception of −20 °C
[10]; [14]
  HETrE (RRT 1) peak area: 91.38%
  IMP 1 (RRT 0.62) peak area: 0.12%
  IMP 2 (RRT 0.64) peak area: 0.51%
  IMP 3 (RRT 0.66) peak area: 0.89%
  IMP 4 (RRT 0.69) peak area: 0.13%
  IMP 5 (RRT 0.72) peak area: 1.29%
  IMP 6 (RRT 0.85) peak area: 0.16%
  IMP 7 (RRT 0.91) peak area: 1.17%
  IMP 8 (RRT 0.98) peak area: 0.29%
  IMP 9 (RRT 1.03) peak area: 0.18%
  IMP 10 (RRT 1.1) peak area: 1.41%
  IMP 11 (RRT 1.75) peak area: 0.88%
[10]; [15]
  HETrE (RRT 1) peak area: 85.56%
  IMP 1 (RRT 0.62) peak area: 0.22%
  IMP 2 (RRT 0.64) peak area: 1.48%
  IMP 3 (RRT 0.66) peak area: 1.47%
  IMP 4 (RRT 0.69) peak area: 0.19%
  IMP 5 (RRT 0.72) peak area: 3.02%
  IMP 6 (RRT 0.85) peak area: 0.43%
  IMP 7 (RRT 0.91) peak area: 1.56%
  IMP 8 (RRT 0.98) peak area: 0.62%
  IMP 9 (RRT 1.03) peak area: 0.28%
  IMP 10 (RRT 1.1) peak area: 1.79%
  IMP 11 (RRT 1.75) peak area: 1.14%
